Here are results for six molecules from patent US20090047306A1, “ADJUVANT COMPOSITIONS” (priority 2004, published 2009).

The subject of one experiment is glycosidase. The note with it: cited from earlier work.
In the next experiment the test system is α-mannosidase. The note with it: cited from earlier work.
Experiment [1] relates to influenza vaccine-specific IgG, IgG1 and IgG2a. Also on record: species or system Balb/c mice. The conditions noted are these: mouse, in vivo.
The subject of experiment [2] is OVA-specific IgG1 and IgG2a. Briefly: OVA-specific IgG1 and IgG2a plasma antibody titres (ELISA) after immunization with OVA/alum with or without alkaloid. The experiment is classed as in vivo, mice (BALB/c). Here is the method: Alhydrogel (alum; purchased from Superfos BioSector a/s, Vedbaek, Denmark) was mixed with a predetermined quantity of highly purified ovalbumin (OVA; Worthington Biochemical Corporation, Lakewood, N.J.) with or without 3,7-diepi-casuarine.
(§1) All mice (BALB/c) were immunized subcutaneously into the foodpad with 100 μg OVA in 50 μl phosphate-buffered saline (PBS) mixed with alum and either PBS (control) or 3,7-diepi-casuarine (50 μg in PBS). Boosting inoculations were performed in the same fashion 2 weeks later, into the contralateral footpad.
Blood samples (tail bleeds) were taken 3 weeks after the primary inoculation. Enzyme-linked immunosorbent assays (ELISA) were performed as described in Brewer et al. (1999) J Immunol 163:6448-54 to detect OVA-specific IgG1 and IgG2a in plasma. Results were expressed as end-point dilutions where the end-point is determined as the final plasma dilution, which yields a higher absorbance than a negative control plasma sample, included in the assay.
A general note: An ELISA detects its analyte on a solid surface through an enzyme-linked reagent.

Experiment [3] deals with Murine interferon-γ (IFN-γ). The experiment can be described thus: IFN-γ production by spleen cells of inoculated mice re-stimulated with OVA in vitro (ELISA). The note with it: cells from mice inoculated with alum/OVA plus 50 μg compound vs alum/OVA alone (control); FIG. 2. The experiment is classed as cell-based, mice (BALB/c). Here is the method:
as §1
The mouse spleen was removed aseptically and placed in a sterile petri dish containing 5 mls of complete medium (RPMI, 1% L-Glutamine, 1% Penicillin/Streptomycin and 10% foetal calf serum). Cells suspensions were prepared by using the end of a syringe and grinding the spleen through a wire mesh. The cell suspension was then centrifuged at 1000 rpm for 5 minutes. To remove the erythrocytes, the cell pellet was resuspended in Boyle's solution (Tris 0.17M & Ammonium Chloride 0.16M) and centrifuged again for 5 minutes. The pellet was then washed in medium a further two times, then resuspended in 3 ml medium. A cell count was then carried out. Stimulation assays were performed in triplicate in U-bottomed 96-well plates (Corning Costar, N.Y.) with OVA (at 5 μg/ml, 100 μg/ml and 500 μg/ml).
Murine interferon-γ (IFN-γ) was assayed by ELISA using paired antibodies according to the manufacturer's instructions.

Another experiment deals with α-glucosidase. The conditions noted are these: cited from earlier work.
For experiment [4], the system named is alum-induced Th1/Th2 response. Briefly: Effect of exogenous rIL-12 on alum-induced Th1/Th2 responses (Example 1 repeated, lymph node cultures). The experiment is classed as in vivo, mice (BALB/c). The conditions noted are these: 1 μg rIL-12 in place of 3,7-diepi-casuarine; IFN-γ on lymph node cultures. Here is the method:
The experiment described in Example 1 (above) was repeated, but with the 3,7-diepi-casuarine replaced with 1 μg of rIL-12 (R&D Systems, Oxford, UK). Proliferative response assays of IFN-γ were performed on lymph node cultures rather than spleen cells (as described in Pollock et al. (2003) Immunology 108:137-143).

Turning to `O[C@H]1[C@H]2[C@@H](O)CCN2C[C@H]1O` [compound 8], in the experiment with glycosidase, the “glycosidase inhibitory activity relative to swainsonine” value was “much weaker inhibitory activity”.

Regarding `O[C@H]1[C@H]2[C@H](O)CCN2C[C@H]1O` [compound 7, (1S, 2R, 7R, 7aR)-1,2,7-trihydroxy], the “glycosidase inhibitory activity relative to swainsonine” value in the experiment on glycosidase was “much weaker inhibitory activity”.

For the molecule `O[C@H]1[C@H]2[C@H](O)CCCN2C[C@H]1O` [swainsonine], in the experiment on α-mannosidase, the “inhibition of α-mannosidase” value was “potent and specific inhibitor”.

As to `OC[C@H]1[C@@H](O)[C@H](O)[C@H]2[C@@H](O)[C@@H](O)CN21` [3,7-diepi-casuarine, (1R,2R,3S,6S,7R,7aR)-3-(hydroxymethyl)-1,2,6,7-tetrahydroxypyrrolizidine], in experiment [1], the adjuvant activity entry is reported as “exhibits adjuvant activity”, the “dose response of the antibody responses” value is on record as “No dose response”, the “influenza vaccine-specific IgG1 response vs control group vaccinated with influenza vaccine alone” value is reported as “statistically significant increased” and the “influenza vaccine-specific IgG2a response vs control group A” value is recorded as “No differences”. Moreover, in experiment [1], the “influenza vaccine-specific IgGtotal response vs control group A” value is on record as “statistically significant increased” and the “skewing of the Th1/Th2 response from Th2 towards Th1” value is recorded as “No skewing”. The “shift of the alum-induced Th2 response towards Th1” value in experiment [2] (50 μg in admixture with alum/OVA, vs alum/OVA alone) is recorded as “pronounced shift towards a Th1 response”. In addition, the “antigen-specific (OVA) IgG2a in plasma” value in experiment [2] (BALB/c mice, s.c. footpad, 100 μg OVA with alum, with or without 50 μg 3,7-diepi-casuarine, bleed at 3 weeks, FIG. 1b) is on record as “significant increase”. Besides, in experiment [3], the “IFN-γ produced by spleen cells re-stimulated with antigen in vitro” value was “significantly greater amount”.

As to `O[C@H]1[C@H](O)[C@@H](O)CN2CC[C@H](O)[C@H]12` [castanospermine], the “inhibition of α-glucosidase” value in the experiment with α-glucosidase is listed as “potent”.

B1: rIL-12: rIL-12 (R&D Systems, Oxford, UK), recombinant interleukin-12 (protein, UniProt P29459 23-219; P29460 23-328, looked up)
Interleukin-12 subunit alpha: RNLPVATPDPGMFPCLHHSQNLLRAVSNMLQKARQTLEFYPCTSEEIDHEDITKDKTSTVEACLPLELTKNESCLNSRETSFITNGSCLASRKTSFMMALCLSSIYEDLKMYQVEFKTMNAKLLMDPKRQIFLDQNMLAVIDELMQALNFNSETVPQKSSLEEPDFYKTKIKLCILLHAFRIRAVTIDRVMSYLNAS
Interleukin-12 subunit beta: IWELKKDVYVVELDWYPDAPGEMVVLTCDTPEEDGITWTLDQSSEVLGSGKTLTIQVKEFGDAGQYTCHKGGEVLSHSLLLLHKKEDGIWSTDILKDQKEPKNKTFLRCEAKNYSGRFTCWWLTTISTDLTFSVKSSRGSSDPQGVTCGAATLSAERVRGDNKEYEYSVECQEDSACPAAEESLPIEVMVDAVHKLKYENYTSSFFIRDIIKPDPPKNLQLKPLKNSRQVEVSWEYPDTWSTPHSYFSLTFCVQVQGKSKREKKDRVFTDKTSATVICRKNASISVRAQDRYYSSSWSEWASVPCS
Consider B1, for which the “effect on the alum-induced Th1/Th2 response” value in experiment [4] was “comparable effect to 3,7-diepi-casuarine”.
